Patent US11427605B2, “Crystalline forms of 5-chloro-N4-[-2-(dimethylphosphoryl) phenyl]-N2-{2-methoxy-4-[4-(4-methylpiperazin-1-yl) piperidin-1-yl] phenyl} pyrimidine-2,4-diamine” (ARIAD Pharmaceuticals, Inc., priority 2014, dated 2022)
In brackets after ≈: the same amount, converted by molar mass. Several values for one entry are separate records, joined by “and”; a condition that tells them apart may be missing. Equal values may be shown once.

How the values were obtained:
Type in all cases: physicochemical
[1] = Quantitative solubility testing, set of 24 solvents (HPLC); settings: for solubility at 24 h: 20 °C
Method: Quantitative solubility testing was performed on brigatinib starting material, employing a set of 24 solvents (DMSO, heptane and water were performed in triplicate). In a vial, about 40 mg of starting material, 400 μL of solvent and a stir bar were added. After stirring for 24 h at 20° C. […], the liquid was retrieved, filtered, and analyzed for API content by HPLC.

[2] = Freeze-drying feasibility study; settings: organic solvent or mixture, thermodynamic from solid, data obtained from freeze drying experiment
Method: Freeze-drying. Six freeze-drying experiments were performed with samples of Form A as described in Table 10. Samples 1, 2, and 4 remained mostly crystalline, but samples 3 and 5 were amorphous and contained about 15-16% residual solvent. Sample 6 was amorphous and contained about 7% residual solvent. Forms E and F were produced using this method. However, due to the variable form and solvation, freeze-drying was not further employed to obtain amorphous brigatinib.

[3] = Slurry experiments at 20° C. and 40° C.; settings: slurry 40° C., Chloroform; the solids dissolved after 14 days
Method: A total of 68 slurry experiments were performed with brigatinib both at room temperature (20° C.) and 40° C., using 34 solvents. In all cases, a solvent volume of 250 μL was used. The slurries were stirred for two weeks. At the end of the slurry time, the vials were centrifuged and solids and mother liquids separated. The solids were analyzed wet and dry by XRPD and digital imaging. The measuring plates were then stored at ambient conditions for 3-4 weeks and another XRPD was obtained of the solid, any form change is shown by an arrow.

[4] = Crash crystallization with anti-solvent addition
Method: In the crash-crystallization experiments, 34 different crystallization conditions were applied, using 6 different solvents and 24 different anti-solvents (see Table 17). The anti-solvent addition experiments were performed forward. For each solvent, a stock solution was prepared, the concentration of brigatinib in each case being that attained at saturation at ambient temperature after equilibration for 24 hours before filtering.
For each experiment, the anti-solvent was added to each solvent vial, with a solvent to anti-solvent ratio of 1:0.25. In the cases where no precipitation occurred, this ratio was increased to 1:1, and if again no precipitation occurred the ratio was increased to 1:4, with a waiting time of 60 minutes between the additions (up to the third addition) and 35 minutes between the third addition and fourth addition. When no crystallization occurred or not enough solids precipitated for separation, samples were kept at 5° C. for 17 hours. The precipitated solids were separated from the liquids by centrifugation and decantation. When decantation could not be applied, the liquid was carefully removed using Pasteur's pipettes. The solids were dried at 200 mbar for 17 hours and analyzed by XRPD and digital imaging. In the cases where no precipitation occurred, the solvents were evaporated at 200 mbar for 17 hours prior to lowering the vacuum to 5 mbar. All obtained solids were analyzed by XRPD and digital imaging. The measuring plates containing the final solid were stored at ambient temperature for 5 weeks. The solid form was assessed again by XRPD. The arrows in Table 18 indicate if the form changed during storage.

[5] = Vapor diffusion into solution experiments; settings: solvent Cis-Decahydronaphthalene, anti-solvent vapor MethylCyclohexane, room temperature, two weeks; dry
Method: For the vapor diffusion into solution experiments, saturated solutions of brigatinib were exposed to anti-solvent vapors at room temperature for two weeks. An aliquot of saturated solution was transferred to a vial which was left open and placed in a closed container with anti solvent (see Table 20). After two weeks, the samples were evaluated for solid formation. Where solids were present, the liquids were separated from the solids, which were then dried at full vacuum. In the cases where no precipitation was observed, the solvents were placed overnight at 5° C. to promote precipitation. If no solids were present, the liquids were evaporated at 200 mbar for 75 hours, or, if still no solids were present, the liquids were further evaporated at 10 mbar for a maximum of 10 days. All obtained solids were analyzed dry by XRPD and digital imaging.

[6] = Thermocycling experiments; settings: thermocycling 5-40° C., 8 cycles
Method: A total of 33 slurries and 1 solution (chloroform) of starting material in solvents were prepared at room temperature. The mixtures were placed in a Crystal16™ to undergo the following temperature profile:
1. Heating at a rate of 5° C./h until reaching 40° C., with stirring (500 rpm)
2. Cooling at a rate of 5° C./h until 5° C., with stirring (200 rpm)
3. Aging for 30 min at 5° C.
After completion of the cycling program, the solids were separated from the mother liquids by centrifugation, dried under 200 mbar for 48 hours (2-ethoxyethanol for 283 hours) and analyzed by XRPD and digital imaging. For the applied crystallization conditions and corresponding obtained solid forms, see Table 24. Solid form (or mixture) following the arrow (→) was obtained upon remeasurement by XRPD after storage of the measuring plates at ambient conditions for 5 weeks.

`COc1cc(N2CCC(N3CCN(C)CC3)CC2)ccc1Nc1ncc(Cl)c(Nc2ccccc2P(C)(C)=O)n1` [Brigatinib] showed a solubility at 24 h ([1]; 1,2-dichloroethane, organic solvent or mixture, thermodynamic from solid, 1,2-Dichloroethane) of 38300 µg/mL (≈ 65600 µM), a solubility at 24 h ([1]; 1,2-dimethoxyethane, organic solvent or mixture, thermodynamic from solid, 1,2-Dimethoxyethane) of 1130 µg/mL (≈ 1930 µM) and a solubility at 24 h ([1]; 1,4-dioxane, organic solvent or mixture, thermodynamic from solid, 1,4-Dioxane) of 4010 µg/mL (≈ 6870 µM). The solubility at 24 h ([1]; 1-butanol, organic solvent or mixture, thermodynamic from solid) was 17700 µg/mL (≈ 30400 µM), the solubility at 24 h ([1]; 2-butanone, organic solvent or mixture, thermodynamic from solid) was 1110 µg/mL (≈ 1900 µM) and the solubility ([1]; Dimethyl Sulfoxide, 20° C., 24 h, triplicate) was 3020 µg/mL and 3050 µg/mL. It also gave a solubility ([1]; Ethyl Formate, 20° C., 24 h) of 990 µg/mL (≈ 1690 µM), a solubility at 24 h ([1]; N,N-dimethylacetamide, organic solvent or mixture, thermodynamic from solid) of 470 µg/mL (≈ 805 µM) and a solubility at 24 h ([1]; acetone, organic solvent or mixture, thermodynamic from solid) of 690 µg/mL (≈ 1180 µM). The solubility at 24 h ([1]; acetonitrile, organic solvent or mixture, thermodynamic from solid) was 360 µg/mL (≈ 616 µM), the solubility at 24 h ([1]; butyl acetate, organic solvent or mixture, thermodynamic from solid) was 320 µg/mL (≈ 548 µM) and the solubility at 24 h ([1]; chloroform, organic solvent or mixture, thermodynamic from solid, sample dissolved, no solids harvested) was greater than 182000 µg/mL. For the same compound, the solubility at 24 h ([1]; cyclohexane, organic solvent or mixture, thermodynamic from solid, UR = under range) was less than 10 µg/mL, the solubility at 24 h ([1]; dichloromethane, organic solvent or mixture, thermodynamic from solid, sample dissolved, no solids harvested) was greater than 197000 µg/mL and the solubility at 24 h ([1]; dimethyl sulfoxide, organic solvent or mixture, thermodynamic from solid, triplicate) was 2950 µg/mL (≈ 5050 µM). The solubility at 24 h ([1]; ethanol, organic solvent or mixture, thermodynamic from solid) was 6710 µg/mL (≈ 11500 µM), the solubility at 24 h ([1]; ethyl acetate, organic solvent or mixture, thermodynamic from solid) was 420 µg/mL (≈ 719 µM) and the solubility at 24 h ([1]; isopropanol, organic solvent or mixture, thermodynamic from solid) was 1550 µg/mL (≈ 2650 µM). The solubility at 24 h ([1]; isopropyl acetate, organic solvent or mixture, thermodynamic from solid, UR = under range) was less than 10 µg/mL, the solubility at 24 h ([1]; methanol, organic solvent or mixture, thermodynamic from solid) was 35300 µg/mL (≈ 60500 µM) and the solubility at 24 h ([1]; n-heptane, organic solvent or mixture, thermodynamic from solid, triplicate, UR = under range) was less than 10 µg/mL. The solubility at 24 h ([1]; nitromethane, organic solvent or mixture, thermodynamic from solid) was 410 µg/mL (≈ 702 µM), the solubility at 24 h ([1]; p-xylene, organic solvent or mixture, thermodynamic from solid) was 350 µg/mL (≈ 599 µM) and the “Residual solids after solubility testing, form by XRPD” value ([1]; set of 24 solvents, 20° C., 24 h) was “Form A”. For the same compound, the solubility at 24 h ([1]; tetrahydrofuran, organic solvent or mixture, thermodynamic from solid, UR = under range) was less than 10 µg/mL, the solubility at 24 h ([1]; water, thermodynamic from solid, triplicate) was 90 µg/mL (≈ 154 µM) and the solubility ([2]; 2,2,2-trifluoroethanol/water (80:20)) was greater than 159000 µg/mL. For the same compound, the solubility ([2]; 2,2,2-trifluoroethanol/water (90:10)) was greater than 172000 µg/mL, the solubility ([2]; 2,2,2-trifluoroethanol) was greater than 224000 µg/mL and the “Form dry (XRPD)” value [3] was “A + E”. The “Form (XRPD)” value ([4]; solvent 1,4-Dioxane, anti-solvent Water, S:AS 1:4, no precipitation) was “A + H”, the “Form (XRPD)” value ([4]; solvent Chloroform, anti-solvent tert-Butyl methyl ether, S:AS 1:4, precipitation, wet) was “A + G” and the “Form (XRPD)” value ([4]; solvent Ethanol, anti-solvent Water, S:AS 1:4, no precipitation) was “A + H”. For the same compound, the “Form (XRPD)” value [5] was “Am”, the “Form mother liquid (XRPD)” value ([6]; Chloroform) was “A + G” and the “Form mother liquid (XRPD)” value ([6]; n-Heptane) was “A + L”.
